From patent publication US12005045B2, “Method of modulating TIGIT and PD-1 signalling pathways using 1,2,4-oxadiazole compounds” (AURIGENE ONCOLOGY LIMITED, priority 2018, dated 2024)

Columns and labels:
PD-L1 = target: T1, PD-L1 (Mus musculus, UniProt Q9EP73); test: Rescue of mouse splenocyte proliferation in the presence of recombinant PD-L1 (CFSE proliferation assay); format: cell-based; conditions: 100 nM compound; anti-CD3/CD28 stimulated mouse splenocytes + PD-L1; stimulated splenocytes = 100%; read-out: Percent rescue of splenocyte proliferation at 100 nM PD-L1 based assay
T1 construct: Fc (Fc chimera); purchased R&D Systems 1019-B7-100
T1 sequence (Q9EP73 19-238 limits assumed): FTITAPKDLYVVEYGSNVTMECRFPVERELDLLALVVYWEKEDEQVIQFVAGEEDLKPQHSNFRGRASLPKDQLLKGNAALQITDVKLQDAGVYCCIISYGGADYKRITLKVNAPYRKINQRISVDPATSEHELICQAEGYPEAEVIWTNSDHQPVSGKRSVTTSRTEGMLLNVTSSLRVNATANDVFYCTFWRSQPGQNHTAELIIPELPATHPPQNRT
Description: Recombinant mouse PD-L1 (rm-PDL-1, cat no: 1019-B7-100; R&D Systems) were used as the source of PD-L1.
Mouse splenocytes harvested from 6-8 weeks old C57 BL6 mice; RPMI 1640 (GIBCO, Cat #11875); DMEM with high glucose (GIBCO, Cat #D6429); Fetal Bovine Serum [Hyclone, Cat #SH30071.03]; Penicillin (10000 unit/mL)-Streptomycin (10,000 μg/mL) Liquid (GIBCO, Cat #15140-122); MEM Sodium Pyruvate solution 100 mM (100×), Liquid (GIBCO, Cat #11360); Nonessential amino acid (GIBCO, Cat #11140); L-Glutamine (GIBCO, Cat #25030); Anti-CD3 antibody (eBiosciences—16-0032); Anti-CD28 antibody (eBiosciences—16-0281); ACK lysis buffer (1 mL) (GIBCO, Cat #-A10492); Histopaque (density-1.083 gm/mL) (SIGMA 10831); Trypan blue solution (SIGMA-T8154); 2 mL Norm Ject Luer Lock syringe-(Sigma 2014-12); 40 μm nylon cell strainer (BD FALCON 35230); Hemacytometer (Bright line-SIGMA Z359629); FACS Buffer (PBS/0.1% BSA): Phosphate Buffered Saline (PBS) pH 7.2 (HiMedia TS1006) with 0.1% Bovine Serum Albumin (BSA) (SIGMA A7050) and sodium azide (SIGMA 08591); 5 mM stock solution of CFSE: CFSE stock solution was prepared by diluting lyophilized CFSE with 180 μL of Dimethyl sulfoxide (DMSO C2H6SO, SIGMA-D-5879) and aliquoted in to tubes for further use. Working concentrations were titrated from 10 μM to 1 μM. (eBioscience-650850-85); 0.05% Trypsin and 0.02% EDTA (SIGMA 59417C); 96-well format ELISA plates (Corning CLS3390); BD FACS caliber (E6016); Recombinant mouse B7-H1/PDL1 Fc Chimera, (rm-PD-L1 cat no: 1019-B7-100).
Splenocytes harvested in a 50 mL falcon tube by mashing mouse spleen in a 40 μm cell strainer were further treated with 1 mL ACK lysis buffer for 5 min at room temperature. After washing with 9 mL of RPMI complete media, cells were re-suspended in 3 mL of 1×PBS in a 15 mL tube. 3 mL of Histopaque was added carefully to the bottom of the tube without disturbing overlaying splenocyte suspension. After centrifuging at 800×g for 20 min at room temperature, the opaque layer of splenocytes was collected carefully without disturbing/mixing the layers. Splenocytes were washed twice with cold 1×PBS followed by total cell counting using Trypan Blue exclusion method and used further for cell based assays.
Splenocytes were cultured in RPMI complete media (RPMI+10% fetal bovine serum+1 mM sodium pyruvate+10,000 units/mL penicillin and 10,000 μg/mL streptomycin) and maintained in a CO2 incubator with 5% CO2 at 37° C.
CFSE is a dye that passively diffuses into cells and binds to intracellular proteins. 1×10^6 cells/mL of harvested splenocytes were treated with 5 μM of CFSE in pre-warmed 1×PBS/0.1% BSA solution for 10 min at 37° C. Excess CFSE was quenched using 5 volumes of ice-cold culture media to the cells and incubated on ice for 5 min. CFSE labelled splenocytes were further given three washes with ice cold complete RPMI media. CFSE labelled 1×10^5 splenocytes added to wells containing either MDA-MB231 cells (1×10^5 cells cultured in high glucose DMEM medium) or recombinant human PDL-1 (100 ng/mL) and test compounds. Splenocytes were stimulated with anti-mouse CD3 and anti-mouse CD28 antibody (1 μg/mL each), and the culture was further incubated for 72 h at 37° C. with 5% CO2. Cells were harvested and washed thrice with ice cold FACS buffer and % proliferation was analysed by flow cytometry with 488 nm excitation and 521 nm emission filters.
Percent splenocyte proliferation was analysed using cell quest FACS program and percent rescue of splenocyte proliferation by compound was estimated after deduction of % background proliferation value and normalising to % stimulated splenocyte proliferation (positive control) as 100%. • Stimulated splenocytes: Splenocytes+anti-CD3/CD28 stimulation • Background proliferation: Splenocytes+anti-CD3/CD28+PD-L1 • Compound proliferation: Splenocytes+anti-CD3/CD28+PD-L1+Compound • Compound effect is examined by adding required conc. of compound to anti-CD3/CD28 stimulated splenocytes in presence of ligand (PDL-1).

[1] = tested on: CT26 syngeneic colon adenocarcinoma; test: Efficacy study in the CT-26 syngeneic (Balb/c male) mouse tumor model; format: in vivo; conditions: 14 days, CT26 tumor bearing mice
Description: The objective of this study was to evaluate anti-tumor activity of Compound 19 in a CT26 syngeneic colon adenocarcinoma model.
CT26 cell line was procured from ATCC, maintained and stored at ADTL-Bangalore cell line repository. One vial of CT26 cell line was thawed and revived in T-150 cm^2 flask with RPMI medium supplemented with 10% FBS (Gibco), 10 mM 4-(2-hydroxyethyl)-1-piperazineethanesulfonic acid (HEPES), 1 mM sodium pyruvate, 4.5 g/L Glucose, 1% penicillin streptomycin (Sigma) and 1.5 g/L sodium bicarbonate. The flask with CT26 cells at cell density 0.25 million/ml was incubated at 37±1° C. incubator supplied with 5% carbon dioxide. Cell expansion was carried out in T-150 cm^2 flasks and cell density was maintained between 0.25 […], with cell splitting every alternate day. […] Supernatant was discarded and cell pellets were suspended in media and counted using hemocytometer. […]
When the mean tumor volumes reached approximately 30±5 mm^3, the animals were randomized based on tumor volumes into five groups (G1 to G5) of ten animals (N=10) each as mentioned below. The treatment was continued for a period of 14 days after which the overall efficacy and tolerability were evaluated based on tumor volume and body weight changes observed during the treatment period. […]

mPVR = test: Rescue of mouse CD8+ T-cell proliferation in the presence of recombinant mPVR (IL-2 ELISA readout); format: cell-based; conditions: mouse CD8+ T cells, anti-CD3 + mouse PVR, anti-TIGIT antibody = 100%; for Percent rescue of CD8+ T-cell proliferation at 100 nM mPVR based assay: 100 nM compound; for Percent rescue of CD8+ T-cell proliferation mPVR based assay: 1000 nM compound
From the text: 96-well plates, Corning; RPMI, Cat No. R6504, Sigma; Easy Sep magnet, Cat No. 18000, Stem Cell; Easy Sep Mouse CD8 T Cell isolation kit, Cat No. 19853, Stem Cell; Corning® cell strainer, (70 μm) Cat No. 431751, Corning; Purified anti-mouse CD3 Abs, Cat No. 100201, Biolegend; Recombinant mouse PVR, Cat No. 6909-CD-050, R&D Systems; Recombinant mouse anti-TIGIT Ab, Cat No. 142101, Biolegend; FBS, Cat No. SH30070.03, Hyclone; Mouse IL-2 ELISA Kit, R&D System Cat no DY402; Mouse IFN-γ ELISA Kit R&D Systems Cat no. DY485; Sterile PBS; FicollHistopaque, Cat No. 10831-6X100ML, Sigma
Spleen was collected from C57BL/6 male mice with 6-8 weeks of age. Splenocytes were isolated by slowly crushing the spleen between the sterile glass slides in RPMI+10% FBS and passing it through the 70 μm strainer. Cell suspension was centrifuged at 912×g for 10 minutes at room temperature and discarded the supernatant. Splenocytes were resuspended in RPMI+10% FBS (Complete RPMI). Resuspended splenocytes were overlaid on Ficoll Histopaque-1083 in a 50 ml Tarson tubes. Overlaid cells were centrifuged at 584×g for 30 minutes at room temperature without break. A clear buffy coat was carefully aspirated into sterile PBS. Isolated cells were washed using PBS and resuspended in complete RPMI medium to get a suspension of about 5×10^7 cells/ml. Mouse CD8^+ T cell were isolated by using EasySep Mouse CD8+ T Cell Isolation kit, as per manufacturers instruction.
96-well cell culture plate was coated with Purified anti-mouse CD3, 1 μg/mL (50 μL/well) and Recombinant Mouse PVR Fe Chimera, 0.5 μg/mL (50 ul/well) for 4 hours at 37° C. After 4 hours, the coated plate was washed with sterile PBS. Mouse CD8+ T cells isolated from spleen were added at 0.2 million/well ([…]) concentration into a 96-well cell culture plate. Test compound at various concentrations prepared in water or DMSO was added in respective wells (20 μL/well) so as to make the total volume 200 μL/well. The plates were incubated in 37° C. CO2 incubator for 3 days. On the 3rd day, cell supernatant was collected to determine cytokine levels (IL-2 or IFN-7) using ELISA. The extent of CD8+ T cell proliferation in presence or absence of test compound was measured by analysing the amount of IL-2 or IFN-7 in the culture supernatants using mouse IL-2 or IFN-7 ELISA kits as per manufacture instructions. Recombinant mouse anti-TIGIT antibody was used as positive control to determine the increased proliferation of CD8+ T cells.
Percent CD8+ T cell proliferation was analysed by measuring IL-2 levels using IL-2 ELISA kit and percent rescue of CD8+ T cell by test compound was estimated after deduction of % background proliferation value and normalising to % stimulated CD8+ T cell proliferation by anti-TIGIT antibody (positive control) as 100%.

| Compound | activation at 0.1 µM (PD-L1) [%] | Percent rescue of CD8+ T-cell proliferation at 100 nM mPVR based assay (mPVR) [%] | other results |
| --- | --- | --- | --- |
| CC(O)[C@H](N)c1noc([C@H](Cc2ccc(O)cc2)NC(=O)N2CCC[C@H]2C(=O)O)n1 (stereo partly shown) [Compound 19] | 99 | 72 | tumor growth inhibition ([1]; 10 mg/kg qd oral): 42%; tumor growth inhibition ([1]; 30 mg/kg qd oral, statistically significant compared to vehicle): 53% |
| CC(O)[C@H](NC(=O)N[C@@H](Cc1ccc(O)cc1)C(=O)O)c1nc([C@@H](N)Cc2c[nH]cn2)no1 (stereo partly shown) [Compound 3] | 11 | 59 |  |
| CCC(C)[C@H](NC(=O)N[C@@H](CS)c1nc([C@@H](N)Cc2ccccc2)no1)C(=O)O (stereo partly shown) [Compound 6] | 15 |  |  |
| CC(C)[C@H](N)c1noc([C@@H](NC(=O)N[C@@H](CCC(N)=O)C(=O)O)C(C)O)n1 (stereo partly shown) [Compound 5] | 27 |  | Percent rescue of CD8+ T-cell proliferation mPVR based assay (mPVR): (17 @ 1000 nM) % |
| N[C@@H](CCC(=O)O)c1noc([C@H](Cc2ccc(O)cc2)NC(=O)N[C@@H](Cc2ccccc2)C(=O)O)n1 [Compound 4] | 22 |  |  |
| CC(O)[C@H](N)c1noc([C@@H](N)Cc2ccccc2)n1 (stereo partly shown) [Compound 16] |  |  | Percent rescue of CD8+ T-cell proliferation mPVR based assay (mPVR): 72 (@ 1000 nM) % |
| CC(O)[C@H](N)c1noc([C@@H](NC(=O)N[C@@H](Cc2ccccc2)C(=O)O)C(C)O)n1 (stereo partly shown) [Compound 9] |  | 56.9 |  |
| CC(O)[C@H](NC(=O)NCc1nc([C@@H](N)CC(=O)O)no1)C(=O)O (stereo partly shown) [Compound 2] | 84 | 14 |  |
| N[C@@H](Cc1ccc(O)cc1)c1noc([C@@H]2CCCN2C(=O)N[C@@H](CC(=O)O)C(=O)O)n1 [Compound 1, ((S)-2-(3-((S)-1-amino-2-(4-hydroxyphenyl)ethyl)-1,2,4-oxadiazol-5-yl)pyrrolidine-1-carbonyl)-L-aspartic acid] | 17 | 98 |  |
| CC(O)[C@H](NC(=O)N[C@@H](Cc1cnc[nH]1)c1nc([C@@H](N)Cc2ccc(O)cc2)no1)C(=O)O (stereo partly shown) [Compound 7] | 39 |  |  |
| CC(O)[C@H](NC(=O)NCc1nc([C@@H](N)CCC(=O)O)no1)C(=O)O (stereo partly shown) [Compound 8] |  | 14.6 |  |
| CC(O)[C@H](N)c1noc([C@H](Cc2ccccc2)NC(=O)N2CCC[C@H]2C(=O)O)n1 (stereo partly shown) [Compound 20] | 35 |  |  |
